Experimental data: US20210106550A1, “COMPOSITIONS FOR PREVENTING OR TREATING COGNITIVE IMPAIRMENT-RELATED DISEASE COMPRISING MUMEFURAL” (KOREA INSTITUTE OF ORIENTAL MEDICINE, priority 2018, published 2021)

What was measured:
[1] = system: myelin basic protein (MBP); assay: immunohistostaining of MBP protein (degraded myelin) in white matter and hippocampus; format: in vivo, Wistar rats; details: compared with the negative control, FIGS. 9A, 9B
Method: (§1) Specifically, 12-week-old Wister rats (350 g to 380 g) were used for the experiments. After obtaining the experimental animals, appearance was visually inspected and then normal symptoms were observed during a 7-day acclimation period. Healthy animals were selected therefrom and assigned to groups by a random method according to body weight ranges, and then experiments were performed. […]
In order to investigate the effects on normalization of degraded myelin in the dementia-mimic animal model, mumefural was administered in the same manner as in Example 1 above, and then degradation degrees of oligodendrocytes was analyzed in the hippocampus, fornix, medial septum, corpus callosum, and fimbria hippocampi.
Specifically, the brain was excised from each of the dementia-mimic rats after administration of mumefural was completed and sectioned into slices with a thickness of 40 μm. Subsequently, oligodendrocytes in the hippocampus, white matter fornix, medial septum, corpus callosum, and fimbria hippocampi were detected using myelin basic protein (MBP) that is expressed in the myelin sheath of axons by oligodendrocytes. The slices were stained by immunohistostaining using anti-MBP antibody as a primary antibody and horse anti-mouse antibody as a secondary antibody, and anti-MBP positive cell responses were detected.

[2] = system: ChAT-positive cholinergic cells; assay: immunohistostaining of ChAT-positive cholinergic cells in basal forebrain; format: in vivo, Wistar rats; details: BCCAo rats, oral mumefural; compared with the negative control; FIGS. 4A, 4B
Method: as §1
In order to investigate effects of mumefural on normalization of the cholinergic system in the dementia-mimic animal model, mumefural was administered in the same manner as in Example 1, and then the number of cholinergic neurons of the basal forebrain was measured.
Specifically, the brain was excised from each of the dementia-mimic rats after administration of mumefural was completed and sectioned into slices with a thickness of 40 μm. Subsequently, the cholinergic neurons of the basal forebrain were detected using choline acetyltransferase (ChAT) protein, which is known to be expressed in cholinergic neurons. The slices were stained by immunohistostaining using an anti-ChAT antibody as a primary antibody and a donkey anti-goat antibody as a secondary antibody, and anti-ChAT positive cells were detected.

## O=Cc1ccc(COC(=O)CC(O)(CC(=O)O)C(=O)O)o1 (centres unmarked) [mumefural]
[1]
  myelin degradation (MBP immunohistostaining): decreased
[2]
  number of cells positive for the anti-ChAT antibody in the basal forebrain: significantly increased
